Ki data for 37 compounds are collected here from patent US6008240A, “2-(1H-4(5)-imidazoyl) cyclopropyl derivatives” (Gliatech, Inc., priority 1997, dated 1999).

T1 sequence (Q9QYN8 whole entry): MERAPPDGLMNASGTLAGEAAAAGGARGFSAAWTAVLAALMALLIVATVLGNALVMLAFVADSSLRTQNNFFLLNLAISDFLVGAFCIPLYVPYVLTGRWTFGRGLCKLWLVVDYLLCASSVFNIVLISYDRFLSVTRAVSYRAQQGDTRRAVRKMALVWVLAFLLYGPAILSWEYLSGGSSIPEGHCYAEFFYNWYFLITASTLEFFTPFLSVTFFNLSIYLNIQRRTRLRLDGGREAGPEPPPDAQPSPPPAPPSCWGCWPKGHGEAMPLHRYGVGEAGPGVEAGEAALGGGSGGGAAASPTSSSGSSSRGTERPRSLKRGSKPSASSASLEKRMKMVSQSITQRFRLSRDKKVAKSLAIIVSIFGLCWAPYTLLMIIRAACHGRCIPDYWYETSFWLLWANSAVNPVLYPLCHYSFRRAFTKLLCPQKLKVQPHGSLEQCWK

The first assay addresses T1, Histamine H3 Receptor (Rattus norvegicus, UniProt Q9QYN8).
T1 construct: from tissue; host or cells: rat cerebral cortex membranes
Briefly: In Vitro Histamine H3 Receptor Binding Analysis ([3H]-Nα-methylhistamine, rat cortical membranes).
Conditions: not given
As for the experimental part:
Histamine H3 receptor affinity was determined in rat cortical membranes using the H3 selective agonist ligand, [^3 H]-N^α -methylhistamine (78.9 Ci/mmole, DuPont NEN Research Products, Boston, Mass.) according to the method of West et al., (1990) Mol. Pharmacol. 38: 610-613 with modifications. Briefly, animals were sacrificed by decapitation and the cerebral cortex was rapidly removed. Rat cortices were mechanically homogenized with an Omni 1000 motor driven homogenizer in 10 volumes (wt/vol) of Krebs-Ringers Hepes buffer (pH 7.4) containing the following protease inhibitors; EDTA (10 mmol), PMSF (0.1 mM), chymostatin (0.2 mg/50 mL) and leupeptin (0.2 mg/50 mL). The homogenate was centrifuged in a Sorvall at ~40,000 x g for 30 min. The pellet was resuspended by mechanical homogenization in 25 mL water and lysed on ice for 30 min. The homogenate was recentrifuged and the membrane lysis was repeated. The membranes were recentrifuged and the final pellet was resuspended in 14 volumes of water to give approximately 200 μg protein/100 μl final concentration. The suspension was stored at -80° C. prior to use. Protein concentrations were determined by Coomassie Plus Protein Assay (Pierce, Rockford, Ill.).
Nonspecific binding (NSB) was accounted for by the inclusion of thioperamide (10 μM). Samples were incubated for 40 minutes at 25° C. The samples were filtered through glass fiber strips, pre-washed with 0.3% polyethyleneimine, using a Brandell cell harvester. The filters were rapidly washed three times with 4 ml of 25 mM Tris buffer containing 145 mM NaCl (pH 7.4, 4° C.). Filters were transferred to polyethylene minivials and counted in 3.5 ml of scintillation fluid (Ecolume, ICN Biomedicals, Inc.). Using this procedure, the non-specific binding was less than 10% of the total binding and the binding to the glass fiber filters was negligible. Saturation and competition experiments were analyzed with the ReceptorFit saturation and competition curve fitting programs (Lundon Software, Inc., Cleveland, Ohio).
On to `C(=C/[C@@H]1C[C@H]1c1c[nH]cn1)/CCC1CCCCC1` (relative stereo) [Example 16, (±)-trans4-(2-(4-Cyclohexylbut-cis-1-enyl)cyclopropyl)imidazole], for which the affinity, expressed as Ki, was 12.2 ± 1 nM. The same measure, in the same setting: as for `O=C(N[C@@H]1C[C@H]1c1c[nH]cn1)OCc1ccccc1` (relative stereo) [Example 26, (±)-trans-N-(2-imidazol-4-ylcyclopropyl)(phenylmethoxy)formamide], the figure is 5.8 ± 0.4 nM; as for `O=C(NCCCC1CCCCC1)[C@@H]1C[C@H]1c1c[nH]cn1` (relative stereo) [Example 29, N-[3-cyclohexylpropyl]-3(R)-[1H-imidazol-4-yl]-2(R)-cyclopropanamide and N-[3-cyclohexylpropyl]-3(S)-[1H-imidazol-4-yl]-2(S)-cyclopropanamide], 36 ± 8 nM.

Consider `CC(C)CCC#C[C@@H]1C[C@H]1c1cnc[nH]1` (relative stereo) [Example 40, (±)-4-(2-(5-Methylhex-1-ynyl)cyclopropyl)imidazole], for which the affinity, expressed as Ki, was 6.5 ± 1.5 nM. Still for that read-out and setting: as for `C(#C[C@@H]1C[C@H]1c1cnc[nH]1)CCCCc1ccccc1` (relative stereo) [Example 41, (±)-4-(2-(6-Phenylhex-1-ynyl)cyclopropyl)imidazole], the figure is 16 ± 0.6 nM; as for `O=C(N[C@@H]1C[C@H]1c1c[nH]cn1)OCCC1CCCCC1` (relative stereo) [Example 46, (±)-trans-(Cyclohexylethoxy)-N-(2-imidazol-4-cyclopropyl) formamide], 29 ± 1.2 nM. For `O=C(N[C@@H]1C[C@H]1c1cnc[nH]1)OCCC1CCCC1` (relative stereo) [Example 49, (±)-trans-(2-Cyclopentylethoxy)-N-(2-imidazol-4-ylcyclopropyl) formamide], the affinity, expressed as Ki, was 13 ± 1.5 nM. Same read-out and setting: as for `O=C(N[C@@H]1C[C@H]1c1cnc[nH]1)OCc1ccccc1Br` (relative stereo) [Example 50, (±)-trans-(2-Bromophenyl)methoxy)-N-(2-imidazol-4-ylcyclopropyl) formamide], the figure is 8 ± 0.43 nM. The same measure, in the same setting: as for `O=C(N[C@@H]1C[C@H]1c1cnc[nH]1)OCc1cccc(Br)c1` (relative stereo) [Example 51, (±)-trans-((3-Bromophenyl)methoxy)-N-(2-imidazol-4-ylcyclopropyl) formamide], the figure is 9.9 ± 0.35 nM; as for `COC(=O)/C=C\[C@@H]1C[C@H]1c1cnc[nH]1` (relative stereo) [Example 53, (±) trans-Methyl-3-(2-imidazol-4-ylcyclopropyl)prop-2-enoate], 21.6 ± 3.6 nM.

Take `N[C@@H](CC1CCCCC1)C(=O)N[C@@H]1C[C@H]1c1cnc[nH]1` [Example 12, (1R,2R)-trans-2-(S)-amino-3-cyclohexyl-N-(2-imidazol-4-ylcyclopropyl)propanamide]: affinity was put at a Ki of 1.85 ± 0.5 nM.

Compound `N[C@@H](CC1CCCCC1)C(=O)N[C@H]1C[C@@H]1c1cnc[nH]1` [Example 13, (1S,2S)-trans-2-(S)-amino-3-cyclohexyl-N-(2-imidazol-4-ylcyclopropyl)propanamide] had a Ki of 21.5 ± 1.8 nM. As to `O=C(N[C@@H]1C[C@H]1c1c[nH]cn1)[C@@H]1CC2CCCCC2N1` (stereo partly drawn) [Example 14, (2R, 3R)-trans-(7-Azabicyclo[4.3.0]non-(S)-8-yl)-N-(2-imidazol-4-ylcyclopropyl)formamide], the inhibition constant (Ki) was determined as 8.5 ± 0.7 nM.

`O=C(N[C@H]1C[C@@H]1c1c[nH]cn1)[C@@H]1CC2CCCCC2N1` (stereo partly drawn) [Example 15, (2S, 3S)-trans-(7-Azabicyclo[4.3.0]non-(S)-8-yl)-N-(2-imidazol-4-ylcyclopropyl)formamide] came in with a Ki of 37 ± 4 nM. On the same count and under the same terms, as for `C(=C/[C@@H]1C[C@H]1c1c[nH]cn1)/CCC1CCCCC1` [Example 23, (1R, 2R)-trans-4-(2-(4-Cyclohexylbut-cis-1-enyl)cyclopropyl)imidazole], the figure is 6.2 ± 0.8 nM; as for `C(=C\[C@H]1C[C@@H]1c1c[nH]cn1)/CCC1CCCCC1` [Example 25, (1S, 2S)-trans-4-(2-(4-Cyclohexylbut-trans-1-enyl)cyclopropyl)imidazole], 56 ± 9 nM; as for `O=C(NCCCC1CCCCC1)[C@H]1C[C@@H]1c1cnc[nH]1` [Example 30], 42 ± 7 nM.

The compound `CC(C)(C)CC/C=C\[C@H]1C[C@H]1c1c[nH]cn1` [Example 42, (1R,2R)-4-(2-(5,5-Dimethyl-cis-hex-1-enyl)cyclopropyl)imidazole] displayed a Ki of 41 ± 4 nM.

The assay is the same for the next values; noted with them: rat cortical membranes; 0.8-1.2 nM [3H]-Nα-methylhistamine; 40 minutes at 25° C.; pH 7.4; read-out: H3 Receptor Ki.
`O=C(NCCc1ccccc1)[C@@H]1C[C@H]1c1c[nH]cn1` (relative stereo) [Example 9, (±)-trans-(2-imidazole-4-ylcyclopropyl)-N-(2-phenylethyl)formamide]: the Ki is 163 ± 19 nM. The same measure, in the same setting: to `O=C(NCC1CC1)[C@@H]1C[C@H]1c1c[nH]cn1` (relative stereo) [Example 32, (±)-trans-N-(Cyclopropylmethyl)(2-imidazol-4-ylcyclopropyl)formamide] belongs 876 ± 158 nM; to `O=C(NCCCc1ccccc1)[C@@H]1C[C@H]1c1c[nH]cn1` (relative stereo) [Example 33, (±)-trans-(2-imidazol-4-ylcyclopropyl)-N-(3-phenylpropyl) formamide], 197 ± 23 nM; to `O=C(NCCc1c[nH]cn1)[C@@H]1C[C@H]1c1c[nH]cn1` (relative stereo) [Example 34, (±)-trans-(2-imidazol-4-ylcyclopropyl)-N-(2-imidazol-4-ylethyl) formamide], 227 ± 26 nM. On the same count and under the same terms, to `O=C(NCCc1c[nH]c2ccccc12)[C@@H]1C[C@H]1c1c[nH]cn1` (relative stereo) [Example 35, (±)-trans-(2-imidazol-4-ylcyclopropyl)-N-(2-indol-3-ylethyl) formamide] belongs 441 ± 73 nM; to `O=C(NCC(O)CC1CCCCC1)[C@@H]1C[C@H]1c1c[nH]cn1` (relative stereo) [Example 36, (±)-trans-N-(3-Cyclohexyl-2-(±)-hydroxypropyl)(2-imidazol-4-ylcyclopropyl)formamide], 145 nM; to `O=C(NCCCCC1CCCCC1)[C@@H]1C[C@H]1c1c[nH]cn1` (relative stereo) [Example 37, (±)-trans-N-(4-Cyclohexylbutyl)(2-imidazol-4-ylcyclopropyl)formamide], 68 ± 9.1 nM. Consider `CC(C)(C)CCC#C[C@@H]1C[C@H]1c1c[nH]cn1` (relative stereo) [Example 38, (±)-4-(2-(5,5-Dimethylhex-1-ynyl)cyclopropyl)imidazole], for which the Ki was determined as 0.33 ± 0.1 nM. Still for that read-out and setting: as for `O=C(N[C@@H]1C[C@H]1c1cnc[nH]1)OCCCc1ccccc1` (relative stereo) [Example 47, (±)-trans-N-(2-imidazol-4-ylcyclopropyl)(3-phenylpropoxy)formamide], the figure is 41 ± 3.4 nM; as for `O=C(N[C@@H]1C[C@H]1c1cnc[nH]1)OCCCC1CCCCC1` (relative stereo) [Example 48, (±)-trans-(3-Cyclohexylpropoxy)-N-(2-imidazol-4-ylcyclopropyl) formamide], 55 ± 11 nM. The same measure, in the same setting: to `O=C(NCC1CCCCC1)[C@@H]1C[C@H]1c1c[nH]cn1` [Example 2b] belongs 176 ± 9 nM. Still for that read-out and setting: as for `C(=C/[C@H]1C[C@@H]1c1c[nH]cn1)/CCC1CCCCC1` [Example 24, (1S, 2S)-trans-4-(2-(4-Cyclohexylbut-cis-1-enyl)cyclopropyl)imidazole], the figure is 108 ± 3 nM. Consider `O=C(NCCC1CCCCC1)C1CC1c1c[nH]cn1` [Example 27, (1S, 2S)-trans-N-(2-Cyclohexylethyl)(2-imidazol-4-ylcyclopropyl)formamide], for which the Ki is 8.8 ± 0.1 nM. For `O=C(NCCC1CCCCC1)C1CC1c1c[nH]cn1` [Example 28, (1R, 2R)-trans-N-(2-Cyclohexylethyl)(2-imidazol-4-ylcyclopropyl)formamide], the Ki was 46 ± 13 nM. With `CC(C)(C)CCC#C[C@@H]1C[C@H]1c1c[nH]cn1` [Example 39, (1R,2R)-4-(2-(5,5-Dimethylhex-1-ynyl)cyclopropyl)imidazole], the Ki turned out to be 0.15 ± 0.04 nM.

In the case of `N[C@@H](Cc1ccc(I)cc1)C(=O)N[C@@H]1C[C@H]1c1cnc[nH]1` [Example 44], the Ki is 10.4 ± 1.6 nM.

Staying with this assay, now noted: read-out: H3 Receptor Ki; rat cortical membranes; 0.8-1.2 nM [3H]-Nα-methylhistamine; 40 minutes at 25° C.; pH 7.4.
In the case of `O=C(NCC1CCCCC1)[C@H]1C[C@@H]1c1c[nH]cn1` [Example 2a], the Ki worked out at 23 ± 1 nM. The same measure, in the same setting: as for `N[C@H](/C=C/[C@@H]1C[C@H]1c1c[nH]cn1)CC1CCCCC1` [Example 20, (1R,2R)-trans-1-Cyclohexyl-4-(2-imidazol-4-ylcyclopropyl)but-trans-3-en-2(S)-ylamine], the figure is 0.37 ± 0.2 nM; as for `N[C@H](/C=C\[C@@H]1C[C@H]1c1c[nH]cn1)CC1CCCCC1` [Example 21, (1R,2R)-trans-1-Cyclohexyl-4-(2-imidazol-4-ylcyclopropyl)but-cis-3-en-2(S)-ylamine], 97.7 ± 28 nM.

As a reminder, the Ki is the dissociation constant of the complex between target and ligand, obtained from inhibition or displacement.
